This passage reports Ki and RM0 results from publication PMC6222450, “Computer-Aided Studies for Novel Arylhydantoin 1,3,5-Triazine Derivatives as 5-HT6 Serotonin Receptor Ligands with Antidepressive-Like, Anxiolytic and Antiobesity Action In Vivo” (Molecules : A Journal of Synthetic Chemistry and Natural …, 2018).

One data set addresses T1, dopaminergic D2LR (Homo sapiens, UniProt P14416).
T1 construct: expressed in transfected cells; host or cells: HEK-293
Nature of the data set: Radioligand binding assay, D2LR, [3H]-Raclopride. The conditions noted are these: human D2L receptor stably expressed in HEK-293 cells; read-out: Ki D2 [3H]-Raclopride.

For another data set, the target named is T2, human serotonin 5-HT6R (Homo sapiens, UniProt P50406).
T2 construct: expressed in transfected cells; host or cells: HEK-293
Nature of the data set: Radioligand binding assay, 5-HT6R, [3H]-LSD displacement. The conditions noted are these: human receptor stably expressed in HEK-293 cells; mean of at least two independent experiments; read-out: Ki 5-HT6 [3H]-LSD. The procedure: Five selective radioligands were employed (Table 1).
Radioligand binding assays were used to determine the affinity of the synthesized compounds for human serotonin 5-HT6R, which were stably expressed in HEK-293 cells. […] Each compound was tested in triplicate at 7 to 8 different concentrations (10^−11 to 10^−4 M). The inhibition constants (Ki) were calculated using the Cheng–Prusoff equation [40], and the results are expressed as the mean of at least two independent experiments.

The next data set has as its target T3, 5-HT2A (Homo sapiens, UniProt P28223).
T3 construct: expressed in transfected cells; host or cells: HEK-293
Nature of the data set: Radioligand binding assay, 5-HT2A, [3H]-Ketanserin. As to conditions: human receptor stably expressed in HEK-293 cells.

A further data set deals with T4, 5-HT1A (Homo sapiens, UniProt P08908).
T4 construct: expressed in transfected cells; host or cells: HEK-293
T4 sequence (P08908 1-422): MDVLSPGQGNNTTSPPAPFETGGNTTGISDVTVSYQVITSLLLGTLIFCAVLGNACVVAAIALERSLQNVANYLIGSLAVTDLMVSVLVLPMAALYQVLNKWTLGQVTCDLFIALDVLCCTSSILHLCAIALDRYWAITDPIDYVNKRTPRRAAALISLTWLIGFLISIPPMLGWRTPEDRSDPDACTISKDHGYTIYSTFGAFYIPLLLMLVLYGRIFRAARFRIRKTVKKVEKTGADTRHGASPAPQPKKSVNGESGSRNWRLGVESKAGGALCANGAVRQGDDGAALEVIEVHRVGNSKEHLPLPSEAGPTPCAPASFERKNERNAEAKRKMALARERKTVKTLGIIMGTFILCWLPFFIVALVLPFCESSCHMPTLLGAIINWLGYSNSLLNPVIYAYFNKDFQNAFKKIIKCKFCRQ
Nature of the data set: Radioligand binding assay, 5-HT1A, [3H]-8-OH-DPAT. As to conditions: human receptor stably expressed in HEK-293 cells.

Another data set has as its target T5, 5-HT7bR (Homo sapiens, UniProt P34969).
T5 construct: expressed in transfected cells; host or cells: HEK-293
Nature of the data set: Radioligand binding assay, 5-HT7bR, [3H]-5-CT. As to conditions: human 5-HT7b receptor stably expressed in HEK-293 cells; read-out: Ki 5-HT7 [3H]-5-CT.

The nature of another data set: Lipophilicity by RP-TLC. Format: physicochemical. The conditions noted are these: RP-18 TLC, water/methanol, extrapolated to 100% water. The procedure:
For comparison, the active arylmethyl-triazine compounds previously found (1–3) were also examined. Stationary phase RP-18 and mixtures of water/methanol […] as a mobile phase were employed. RM values were calculated from the RF data obtained. […] The regression coefficients (r^2) determined for all compounds were higher than 0.95. On the basis of the linear relationship between RM values and the volume fraction of methanol, values of RM0 in the systems analyzed corresponding to 100% of water were obtained by extrapolation. RM0 values received for the compounds tested ranged from 3.14 to 4.49 (Figure 6).
The mobile phases were prepared by mixing the respective amounts of water and organic modifier (methanol) in a range from 40 to 90% (v/v) in 5% increments. TLC was performed on Silica gel 60RP-18 F254 plates (7 × 10 cm) plates (Merck, Darmstadt, Germany). Methanol was used to prepare the solutions of the substances. Solutions (10 µL) of the analyzed compounds were applied to the plates as 5 mm bands, 10 mm apart and 10 mm from the lower edge and sides of the plates, by using Linomat V applicator (Camag, Basel, Switzerland). The vertical chamber (Sigma–Aldrich, St. Louis, MI, USA), 20 × 10 × 18 cm in size, was saturated with mobile phase for 20 min. Development was carried out over 9 cm from the starting line at a temperature of 20 °C. Next, the plates were dried at room temperature, and the spots were observed under ultraviolet light at 254 nm and/or 366 nm (UV lamp, Camag, Basel, Switzerland). In each case, sharp and symmetric spots without a tendency for tailing were obtained. Each experiment was run in triplicate and mean RF (retardation factor) values were calculated.
Starting from the RF values, the RM parameters were computed as described in the formula:RM = log(1/RF − 1)
The linear correlations between the RM values of the substances and the concentration of methanol in mobile phases were calculated for each compound with the Soczewiński-Wachtmeister equation [22]:RM = RM0 + aC where C is the concentration of the organic modifier (in %) in the mobile phase, a is the slope, and RM0 is the […].

T1 sequence (P14416 whole entry): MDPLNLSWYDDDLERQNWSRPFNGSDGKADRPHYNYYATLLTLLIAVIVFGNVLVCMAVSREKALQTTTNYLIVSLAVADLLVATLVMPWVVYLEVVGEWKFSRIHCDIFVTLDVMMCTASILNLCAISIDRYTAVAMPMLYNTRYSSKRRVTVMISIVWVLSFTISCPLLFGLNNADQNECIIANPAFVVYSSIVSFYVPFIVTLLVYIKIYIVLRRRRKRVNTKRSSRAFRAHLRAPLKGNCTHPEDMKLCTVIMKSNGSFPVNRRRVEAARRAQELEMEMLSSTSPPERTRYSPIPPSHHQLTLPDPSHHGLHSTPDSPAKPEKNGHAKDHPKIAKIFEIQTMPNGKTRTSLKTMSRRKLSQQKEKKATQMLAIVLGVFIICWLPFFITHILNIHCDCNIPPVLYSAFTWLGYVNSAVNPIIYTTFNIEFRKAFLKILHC
T3 sequence (P28223 whole entry): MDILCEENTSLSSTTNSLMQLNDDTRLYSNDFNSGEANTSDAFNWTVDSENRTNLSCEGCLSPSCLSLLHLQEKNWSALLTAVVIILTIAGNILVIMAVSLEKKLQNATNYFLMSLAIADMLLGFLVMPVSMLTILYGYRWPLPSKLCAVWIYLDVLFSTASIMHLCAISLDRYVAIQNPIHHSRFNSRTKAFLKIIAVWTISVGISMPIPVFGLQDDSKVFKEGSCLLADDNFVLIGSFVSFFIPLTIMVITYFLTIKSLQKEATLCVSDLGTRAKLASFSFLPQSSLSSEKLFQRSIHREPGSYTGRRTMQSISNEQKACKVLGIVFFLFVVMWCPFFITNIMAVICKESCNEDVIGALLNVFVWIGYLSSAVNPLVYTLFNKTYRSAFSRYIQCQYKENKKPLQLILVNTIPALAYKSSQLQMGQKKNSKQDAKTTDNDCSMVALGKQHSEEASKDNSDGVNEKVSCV
T2 sequence (P50406 whole entry): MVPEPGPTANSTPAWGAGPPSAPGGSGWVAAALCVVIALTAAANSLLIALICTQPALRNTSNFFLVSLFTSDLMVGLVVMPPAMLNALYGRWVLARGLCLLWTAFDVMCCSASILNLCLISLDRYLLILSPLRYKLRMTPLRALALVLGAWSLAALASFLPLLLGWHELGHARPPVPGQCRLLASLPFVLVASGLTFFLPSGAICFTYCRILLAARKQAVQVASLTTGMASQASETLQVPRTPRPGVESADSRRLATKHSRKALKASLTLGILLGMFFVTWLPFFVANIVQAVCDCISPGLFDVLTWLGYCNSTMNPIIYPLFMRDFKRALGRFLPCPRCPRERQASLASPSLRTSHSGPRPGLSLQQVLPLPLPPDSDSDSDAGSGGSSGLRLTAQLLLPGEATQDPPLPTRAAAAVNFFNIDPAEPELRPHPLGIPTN
T5 sequence (P34969 1-432 limits assumed): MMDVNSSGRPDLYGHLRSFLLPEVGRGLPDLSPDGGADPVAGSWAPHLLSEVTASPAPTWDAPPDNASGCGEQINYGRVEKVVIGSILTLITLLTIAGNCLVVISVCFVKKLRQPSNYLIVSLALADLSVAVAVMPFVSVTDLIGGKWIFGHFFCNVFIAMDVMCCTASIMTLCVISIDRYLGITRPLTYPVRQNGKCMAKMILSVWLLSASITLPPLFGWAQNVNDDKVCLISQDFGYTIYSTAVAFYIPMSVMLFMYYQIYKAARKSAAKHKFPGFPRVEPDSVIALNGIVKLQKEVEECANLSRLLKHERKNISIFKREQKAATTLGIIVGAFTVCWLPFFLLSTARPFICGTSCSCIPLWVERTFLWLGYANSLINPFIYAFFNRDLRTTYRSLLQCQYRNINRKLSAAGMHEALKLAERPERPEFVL

Consider `Cc1cccc(CN2C(=O)N(Cc3nc(N)nc(N4CCN(C)CC4)n3)C(=O)C2(C)C)c1` [Compound 17, 1-(3-Methylbenzyl)-3-((4-amino-6-(4-methylpiperazin-1-yl)-1,3,5-triazin-2-yl)methyl)-5,5-dimethylimidazolidine-2,4-dione], for which the inhibitory constant (Ki) on dopaminergic D2LR stood at 5.21 µM; at human serotonin 5-HT6R, 0.895 µM; on 5-HT2A, 0.817 µM; at 5-HT1A, 17 µM; at 5-HT7bR, 0.42 µM.

On to `Cc1ccc(C2(C)NC(=O)N(Cc3nc(N)nc(N4CCN(C)CC4)n3)C2=O)cc1` (stereo not shown) [Compound 24, 3-((4-Amino-6-(4-methylpiperazin-1-yl)-1,3,5-triazin-2-yl)methyl)-5-(4-methylphenyl)-5-methylimidazolidine-2,4-dione], for which the inhibitory constant (Ki) at dopaminergic D2LR turned out to be 23.3 µM; at human serotonin 5-HT6R it was 0.667 µM; on 5-HT2A it was 24.4 µM; at 5-HT1A, 22.3 µM; at 5-HT7bR it was 0.564 µM.

For `CN1CCN(c2nc(N)nc(CN3C(=O)N(Cc4ccc(Cl)cc4Cl)C(C)(C)C3=O)n2)CC1` [Compound 12, 1-(2,4-Dichlorobenzyl)-3-((4-amino-6-(4-methylpiperazin-1-yl)-1,3,5-triazin-2-yl)methyl)-5,5-dimethylimidazolidine-2,4-dione], the inhibition constant (Ki) on dopaminergic D2LR is 0.681 µM; on human serotonin 5-HT6R, 0.205 µM; on 5-HT2A, 3.59 µM; on 5-HT1A, 7.69 µM; on 5-HT7bR it was 1.12 µM.

For `CN1CCN(c2nc(N)nc(CN3C(=O)NC(C)(c4ccc(Cl)cc4Cl)C3=O)n2)CC1` (stereo not shown) [Compound 22, 3-((4-Amino-6-(4-methylpiperazin-1-yl)-1,3,5-triazin-2-yl)methyl)-5-(2,4-dichlorophenyl)-5-methylimidazolidine-2,4-dione], the inhibition constant (Ki) on dopaminergic D2LR was 15.1 µM; at human serotonin 5-HT6R, 0.457 µM; on 5-HT2A it was 10.8 µM; at 5-HT1A, 14 µM; on 5-HT7bR, 10.1 µM.

Take `CN1CCN(c2nc(N)nc(CN3C(=O)N(Cc4cccc(Br)c4)C(C)(C)C3=O)n2)CC1` [Compound 15, 1-(3-Bromobenzyl)-3-((4-amino-6-(4-methylpiperazin-1-yl)-1,3,5-triazin-2-yl)methyl)-5,5-dimethylimidazolidine-2,4-dione]: the Ki at dopaminergic D2LR amounted to 6.68 µM; on human serotonin 5-HT6R, 0.57 µM; on 5-HT2A, 1.33 µM; on 5-HT1A, 12.9 µM; at 5-HT7bR, 0.571 µM.

As to `CN1CCN(c2nc(N)nc(CN3C(=O)NC(C)(C)C3=O)n2)CC1` [Compound 4], the figures for the Ki on dopaminergic D2LR, at human serotonin 5-HT6R and on 5-HT7bR were 22.3 µM, 0.427 µM and 35.8 µM, respectively.

As to `CN1CCN(c2nc(N)nc(CN3C(=O)NC(C)(c4cc(Cl)ccc4Cl)C3=O)n2)CC1` (stereo not shown) [Compound 21, 3-((4-Amino-6-(4-methylpiperazin-1-yl)-1,3,5-triazin-2-yl)methyl)-5-(2,5-dichlorophenyl)-5-methylimidazolidine-2,4-dione], the Ki at dopaminergic D2LR was 11.5 µM; at human serotonin 5-HT6R, 0.403 µM; on 5-HT2A, 11.1 µM; on 5-HT1A it was 26.2 µM; at 5-HT7bR, 1.56 µM.

Consider `CN1CCN(c2nc(N)nc(CN3C(=O)NC(C)(c4ccccc4)C3=O)n2)CC1` (stereo not shown) [Compound 19, 3-((4-Amino-6-(4-methylpiperazin-1-yl)-1,3,5-triazin-2-yl)methyl)-5-methyl-5-phenylimidazolidine-2,4-dione], for which the Ki at dopaminergic D2LR was 41 µM; on human serotonin 5-HT6R, 0.726 µM; on 5-HT2A, 12.1 µM; on 5-HT1A, 31.6 µM; at 5-HT7bR, 1.1 µM.

Regarding `CN1CCN(c2nc(N)nc(Cc3cccc(Cl)c3)n2)CC1` [Compound 2, reference compound], the RM0 in the data set “Lipophilicity by RP-TLC” is given as 3.25.

For the compound `CN1CCN(c2nc(N)nc(Cc3cccc4ccccc34)n2)CC1` [Compound 1, reference compound], the RM0 in “Lipophilicity by RP-TLC” is recorded as 3.14.

`CN1CCN(c2nc(N)nc(CN3C(=O)N(Cc4cc(Cl)ccc4Cl)C(C)(C)C3=O)n2)CC1` [Compound 11, 1-(2,5-Dichlorobenzyl)-3-((4-amino-6-(4-methylpiperazin-1-yl)-1,3,5-triazin-2-yl)methyl)-5,5-dimethylimidazolidine-2,4-dione]: the inhibitory constant (Ki) was determined as 2.87 µM on dopaminergic D2LR; 0.597 µM on human serotonin 5-HT6R; 0.809 µM on 5-HT2A; 4.16 µM at 5-HT1A; 0.279 µM at 5-HT7bR.

Consider `CN1CCN(c2nc(N)nc(CN3C(=O)N(Cc4cccc(F)c4)C(C)(C)C3=O)n2)CC1` [Compound 14, 1-(3-Fluorobenzyl)-3-((4-amino-6-(4-methylpiperazin-1-yl)-1,3,5-triazin-2-yl)methyl)-5,5-dimethylimidazolidine-2,4-dione], for which the inhibitory constant (Ki) was 6.58 µM on dopaminergic D2LR; 0.447 µM at human serotonin 5-HT6R; 0.239 µM at 5-HT2A; 37.1 µM at 5-HT1A; 0.088 µM at 5-HT7bR.

In the case of `CN1CCN(c2nc(N)nc(CN3C(=O)NC(C)(c4cccc(Cl)c4)C3=O)n2)CC1` (stereo not shown) [Compound 20, 3-((4-Amino-6-(4-methylpiperazin-1-yl)-1,3,5-triazin-2-yl)methyl)-5-(3-chlorophenyl)-5-methylimidazolidine-2,4-dione], the inhibition constant (Ki) on dopaminergic D2LR is 16.8 µM; at human serotonin 5-HT6R, 0.418 µM; on 5-HT2A, 7.4 µM; on 5-HT1A it was 4.1 µM; on 5-HT7bR it was 0.791 µM.

As to `COc1cccc(CN2C(=O)N(Cc3nc(N)nc(N4CCN(C)CC4)n3)C(=O)C2(C)C)c1` [Compound 16, 1-(3-Methoxybenzyl)-3-((4-amino-6-(4-methylpiperazin-1-yl)-1,3,5-triazin-2-yl)methyl)-5,5-dimethylimidazolidine-2,4-dione], the Ki at dopaminergic D2LR worked out at 15.5 µM; on human serotonin 5-HT6R, 0.692 µM; on 5-HT2A, 2.04 µM; at 5-HT1A, 23.9 µM; at 5-HT7bR, 3.59 µM.

With `CN1CCN(c2nc(N)nc(CN3C(=O)N(Cc4ccc(F)cc4)C(C)(C)C3=O)n2)CC1` [Compound 13, 1-(4-Fluorobenzyl)-3-((4-amino-6-(4-methylpiperazin-1-yl)-1,3,5-triazin-2-yl)methyl)-5,5-dimethylimidazolidine-2,4-dione], the inhibitory constant (Ki) was 6.56 µM at dopaminergic D2LR; 0.663 µM at human serotonin 5-HT6R; 3.55 µM at 5-HT2A; 48.4 µM at 5-HT1A; 0.953 µM at 5-HT7bR.

`CN1CCN(c2nc(N)nc(CN3C(=O)N(Cc4cccc(Cl)c4)C(C)(C)C3=O)n2)CC1` [Compound 10, 1-(3-Chlorobenzyl)-3-((4-amino-6-(4-methylpiperazin-1-yl)-1,3,5-triazin-2-yl)methyl)-5,5-dimethylimidazolidine-2,4-dione]: the Ki at dopaminergic D2LR came to 4.63 µM; at human serotonin 5-HT6R it was 0.271 µM; on 5-HT2A, 0.328 µM; at 5-HT1A, 13.6 µM; at 5-HT7bR it was 0.159 µM.

`CN1CCN(c2nc(N)nc(CN3C(=O)N(Cc4ccccc4)C(C)(C)C3=O)n2)CC1` [Compound 9, 3-((4-Amino-6-(4-methylpiperazin-1-yl)-1,3,5-triazin-2-yl)methyl)-1-benzyl-5,5-dimethylimidazolidine-2,4-dione]: the inhibition constant Ki at dopaminergic D2LR worked out at 8.78 µM; at human serotonin 5-HT6R it was 0.592 µM; at 5-HT2A, 1.6 µM; at 5-HT1A, 42.6 µM; on 5-HT7bR it was 0.35 µM.

Turning to `Cc1cccc(Cc2nc(N)nc(N3CCN(C)CC3)n2)c1` [Compound 3, reference compound], the RM0 in “Lipophilicity by RP-TLC” is reported as 3.58.

One may read the Ki as a dissociation constant, usually derived from enzyme kinetics or from competition with a known ligand.
